Assay in all cases: NCI-60 cell line screen, 48 h
Test [1] has as its system 786-0 renal.
The test system of test [2] is UACC-62 melanoma.
Test [3] concerns KM12 colon.
Test [4] relates to SK-OV-3 ovarian.
Test [5] concerns SF-295 CNS.
Test [6] deals with HCT-15 colon.
Test [7] has as its system SN12C renal.
The test system of test [8] is SF-268 CNS.
In test [9] the test system is IGROV1 ovarian.
The subject of test [10] is COLO 205 colon.
Test [11] has as its system NCI/ADR-RES ovarian.
Test [12] deals with MCF7 breast.
Test [13] relates to DU-145 prostate.

The structures appear in SMILES notation.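 Growth conditions: 96-well plates. Treatment: test compound, 48 hours, 5 concentrations. Analysis: linear interpolation between bracketing concentrations; unreached endpoints set to highest concentration. GI50 marks 50% less growth. TGI: concentration producing complete growth inhibition.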

Take `CC1C(c2ccccc2)=CCON1c1ccccc1` (stereo not given): the TGI in test [1], in test [2], in [3], in test [4], in test [5] and in test [6] was above 100 µM throughout. In addition, the TGI in test [7], in test [8], in test [9] and in test [10] was above 100 µM each time.
With `CC[N+](CC)(CC)Cc1cn(S(=O)(=O)c2ccccc2)c2ccccc12`, the TGI in test [1], in test [2], in test [3], in test [5], in test [6] and in test [8] was above 100 µM each time. For the same compound, the TGI in [9] and in test [10] was above 100 µM in each case.
Consider `N#CC(c1ccc(Cl)cc1)c1cccc(Cl)n1` (stereo not given), for which the TGI in test [1], in test [2], in test [3], in [4], in [5] and in test [7] was above 100 µM each time. The TGI in test [8] and in test [10] was above 100 µM each time.
For the compound `CN(C)c1cccc(-c2cc(=O)c3cc4c(cc3[nH]2)OCO4)c1`, the TGI in test [1] was 30.1 µM; in test [2], above 100 µM; in test [3] it was 1.46 µM; in test [4], 0.932 µM; in test [5], 0.693 µM; in [6], above 90 µM. In addition, the TGI in test [7] is above 100 µM; in test [8], 31.4 µM; in test [9], above 47.5 µM; in test [10] it was 0.823 µM.
For the compound `Cc1cccc(NC(=O)CSc2nnc(Cc3ccccc3)o2)c1`, the TGI in test [1], in test [2], in test [3], in test [4], in test [5] and in test [6] was above 100 µM each time. Further, the TGI in [7], in test [8], in [9] and in test [10] was above 100 µM each time.
`CCOC(=O)C(NC(=O)NCc1ccc(F)cc1)C(F)(F)F` (stereo not given): the TGI in [1], in [4], in [6], in test [11], in test [7] and in [8] was above 100 µM throughout. Besides, the TGI in test [9] and in [10] was above 100 µM in each case.
Consider `CC(C)(C)c1cc(N=NC(=S)NCc2ccccc2)cc(C(C)(C)C)c1O`, for which the TGI in test [1], in test [2], in [5], in test [6], in test [7] and in test [8] was above 100 µM in each case. The TGI in test [9] and in [10] was above 100 µM each time.
Regarding `c1cc2[se][se]c3c4cccc5[se][se]c(c(c1)c23)c54`, the TGI in test [1], in [2], in test [3], in test [4], in test [5] and in [7] was above 100 µM in each case. Further, the TGI in test [8], in [9] and in test [10] was above 100 µM throughout.
For the compound `C1=Cc2nc1c(-c1ccccc1)c1ccc([n-]1)c(-c1ccccc1)c1nc(c(-c3ccccc3)c3ccc([n-]3)c2-c2ccccc2)C=C1.[Zn+2]`, the TGI in test [1], in [2], in test [3], in test [4], in [5] and in test [6] was above 100 µM in each case. In addition, the TGI in [7], in test [8], in [9] and in test [10] was above 100 µM throughout.
`CCC12CC[C@H](C#N)N3CCc4c(n(c5ccccc45)C(=O)C1)C32` (stereo not given in full): the TGI was 34.1 µM in test [1]; 33.4 µM in [2]; 22.5 µM in test [3]; 75 µM in [4]; 31.2 µM in test [5]; 20.3 µM in [6]. The TGI was found to be 37.8 µM in [7], 53.7 µM in test [8], 63.3 µM in test [9] and 43.1 µM in test [10].
For the compound `NC(=S)Nc1nnc(-c2ccc(-c3nnc(NC(N)=S)o3)cc2)o1`, the TGI in test [1], in [2], in test [3], in test [4], in test [5] and in test [6] was above 100 µM in each case. In addition, the TGI in [7], in test [8], in [9] and in test [10] was above 100 µM in each case.
With `O=C(CSc1nnc(-c2ccc(N=Cc3ccc(Cl)cc3)cc2)o1)Nc1ccccc1`, the TGI in [1] is 47 µM; in test [2] it was above 100 µM; in [4] it was above 100 µM; in [5], above 100 µM; in test [6] it was above 100 µM; in test [7], above 100 µM. Besides, the TGI in [8] and in test [10] was above 100 µM in each case.
In the case of `CCOC(=O)C(=O)Nc1ccc([N+](=O)[O-])cc1C#N`, the TGI in test [1], in [2], in [3], in [4], in test [5] and in [6] was above 100 µM each time. Also, the TGI in test [7], in [8] and in test [9] was above 100 µM each time.
For `O=C1OC(c2ccccc2)(c2ccccc2)CC1CN1CCOCC1` (stereo not given), the TGI was 30.4 µM in test [1]; above 100 µM in test [2]; 30.8 µM in test [3]; 60.6 µM in [4]; 29.6 µM in test [6]; 25.1 µM in test [7]. In addition, the TGI in test [8] is 84 µM; in test [9], above 100 µM; in test [10], 18.4 µM.
As to `Clc1ccc2c(Cl)ncnc2c1I`, the TGI in test [1], in test [2], in test [3], in test [4], in test [5] and in test [6] was above 100 µM each time. Further, the TGI in test [7], in test [8], in [9] and in [10] was above 100 µM in each case.
Consider `O=C(/C=C(\O)C(=O)O)/C=C(\O)c1ccccc1Cl`, for which the TGI in test [1], in test [2], in test [3], in [4], in test [5] and in test [6] was above 100 µM each time. For the same compound, the TGI in test [7], in test [8], in test [9] and in test [10] was above 100 µM each time.
Take `COCC1OCCN1C` (stereo not given): the TGI in test [1], in [2], in test [3], in [4], in [5] and in [6] was above 100 µM in each case. In addition, the TGI in [11], in test [12], in test [8], in test [9] and in [10] was above 100 µM in each case.
Take `CCOC(=O)C1=C(C)C2C3C(=O)NC(=O)C3C1(C)C1C(=O)NC(=O)C21` (stereo not given): the TGI in test [1], in [2], in test [3], in [4], in test [5] and in test [6] was above 100 µM throughout. In addition, the TGI in test [7], in test [8], in test [9] and in [10] was above 100 µM throughout.
Turning to `O=C(/C=C\c1cccc2ccccc12)c1ccc(Br)cc1`, the TGI in test [1] was determined as 33.7 µM; in test [2] it was 29.3 µM; in [3] it was 28.3 µM; in [4], 93.6 µM; in test [5], 46.5 µM; in test [6], 34.7 µM. Further, the TGI in [7] is above 100 µM; in test [8] it was 53.1 µM; in test [9] it was 46.1 µM; in test [10], 91.6 µM.
For the compound `N=c1oc2cc(O)c(O)cc2cc1C(N)=O`, the TGI in [1], in test [2], in test [3], in test [4], in test [5] and in test [6] was above 100 µM in each case. Further, the TGI in [7], in [8], in test [9] and in [10] was above 100 µM each time.
In the case of `CO[C@H]1C[C@@H]2CC[C@@H](C)[C@@](O)(O2)C(=O)C(=O)N2CCCC[C@H]2C(=O)O[C@H]([C@H](C)C[C@@H]2CC[C@@H](OC(=O)C(C)(CO)CO)[C@H](OC)C2)CC(=O)[C@H](C)/C=C(\C)[C@@H](O)[C@@H](OC)C(=O)[C@H](C)C[C@H](C)/C=C/C=C/C=C/1C`, the TGI was above 100 µM in test [1]; 29.7 µM in [2]; above 100 µM in test [3]; above 100 µM in test [4]; above 100 µM in test [5]; above 100 µM in test [6]. Further, the TGI in test [11] was 72.5 µM; in [7] it was above 71.3 µM; in test [13], above 100 µM; in test [8], above 85.7 µM; in test [9] it was 15.3 µM; in [10], above 60.4 µM. For the same compound, the GI50 was 2.17 µM in test [3]; below 0.0222 µM in [6]; 1.01 µM in [11]; 0.497 µM in [7]; 0.0379 µM in test [13]; 2.99 µM in test [8]. Moreover, the GI50 in test [9] is 0.000946 µM.
Consider `CC1=C(N(C)C)C(=O)c2nc3n(c2C1=O)CCC3OC(N)=O` (stereo not given), for which the TGI in test [1] worked out at 31.6 µM; in test [2], 18 µM; in test [3], 31.5 µM; in [4], 29.5 µM; in test [5], 28.5 µM; in test [6], 28.9 µM. The TGI was 28.8 µM in test [7], 34.6 µM in test [8], 30.6 µM in [9] and 33.1 µM in test [10].
Regarding `O=C(O/N=C1/CCC/C1=C\c1ccccc1)c1ccccc1`, the TGI in test [1], in test [2], in test [3], in test [4], in [5] and in [6] was above 100 µM each time. Also, the TGI in test [7], in test [8], in test [9] and in [10] was above 100 µM in each case.
With `COc1ccc2c(c1)CC1NC2Cc2ccccc21` (stereo not given), the TGI in test [1], in test [2], in test [3], in test [4], in [5] and in test [6] was above 100 µM throughout. In addition, the TGI in test [8], in test [9] and in [10] was above 100 µM each time.
Take `Cc1nc2c(s/c(=N\N)n2-c2ccccc2)c(=O)[nH]1`: the TGI in test [1], in test [2], in test [3], in [4], in test [5] and in test [6] was above 100 µM each time. Further, the TGI in [7], in test [8], in [9] and in [10] was above 100 µM each time.
For `Cc1nc(Nc2ccccc2)sc1C(=O)NNC(N)=O`, the TGI in test [1], in test [2], in test [3], in [4], in test [5] and in test [7] was above 100 µM each time. Further, the TGI in [8], in test [9] and in test [10] was above 100 µM throughout.
Regarding `Cc1c(C(=O)Nc2ccc(Cl)c(C(F)(F)F)c2)oc2cc(O)ccc2/c1=N\NC(N)=S`, the TGI in [1], in test [2], in test [3], in test [4], in [5] and in test [6] was above 100 µM throughout. Besides, the TGI in [7], in [8], in test [9] and in test [10] was above 100 µM each time.
